# Laboratory results published in PubChem BioAssay (NCI).
#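 Assay format: 96-well plates, 48-hour exposure. The concentration for 50% growth inhibition is given as GI50. TGI denotes the concentration required for complete inhibition of growth.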
# Key:
# Assay in all cases: DTP human tumour cell line panel, 48 h
# SK-MEL-2 melanoma = test system: SK-MEL-2 melanoma
# SR leukemia = test system: SR leukemia
# IGROV1 ovarian = test system: IGROV1 ovarian
# KM12 colon = test system: KM12 colon
# MCF7 breast = test system: MCF7 breast
# MALME-3M melanoma = test system: MALME-3M melanoma
# SF-295 CNS = test system: SF-295 CNS
# SK-MEL-5 melanoma = test system: SK-MEL-5 melanoma
# PC-3 prostate = test system: PC-3 prostate
# NCI-H226 lung = test system: NCI-H226 lung
SMILES,GI50 (SK-MEL-2 melanoma),GI50 (SR leukemia),TGI (SR leukemia),GI50 (IGROV1 ovarian),GI50 (KM12 colon),GI50 (MCF7 breast),TGI (MCF7 breast),GI50 (MALME-3M melanoma),TGI (MALME-3M melanoma),GI50 (SF-295 CNS),TGI (SK-MEL-2 melanoma),TGI (IGROV1 ovarian),GI50 (SK-MEL-5 melanoma),TGI (SK-MEL-5 melanoma),TGI (KM12 colon),GI50 (PC-3 prostate),TGI (PC-3 prostate),GI50 (NCI-H226 lung),TGI (NCI-H226 lung),TGI (SF-295 CNS)
C=CCN1CC2CON(C(=O)C(OC)(c3ccccc3)C(F)(F)F)C2C1C(C)C (configuration not stated),27.8 µg/mL,11.1 µg/mL,65.1 µg/mL,56.9 µg/mL,36.2 µg/mL,26.2 µg/mL,78.7 µg/mL,20 µg/mL,54.5 µg/mL,35.7 µg/mL,,,,,,,,,,
COc1ccc(/C=C(/c2ccccc2)[N+](=O)[O-])cc1,1.92 µM,0.464 µM,6.95 µM,1.27 µM,1.85 µM,0.567 µM,2.68 µM,1.42 µM,2.94 µM,2.29 µM,4.44 µM,2.67 µM,1.82 µM,3.29 µM,3.5 µM,1.46 µM,3.21 µM,1.95 µM,4.43 µM,5.22 µM
CC1C(=O)OC2CC[N+]3([O-])CC=C(COC(=O)C(C)(O)C1(C)O)C23 (configuration not stated),,,> 100 µM,,,,> 100 µM,,> 100 µM,,> 100 µM,> 100 µM,,> 100 µM,> 100 µM,,> 100 µM,,> 100 µM,> 100 µM
COc1ccc2c3c(Nc4ccc(/C(C)=N/O)cc4)[nH]c4ccccc4c-3c(N=O)c2c1,18.4 µM,1.47 µM,4.27 µM,15 µM,1.13 µM,0.843 µM,> 100 µM,6.31 µM,27.6 µM,9.11 µM,40.6 µM,29.2 µM,3.76 µM,14.8 µM,4.39 µM,1.52 µM,3.2 µM,17 µM,38.3 µM,38.9 µM
Cc1ccc(Nc2nnc(-c3ccc4c(c3)OCO4)o2)c(C)c1,,,> 100 µM,,,,> 100 µM,,> 100 µM,,> 100 µM,> 100 µM,,> 100 µM,> 100 µM,,> 100 µM,,> 100 µM,> 100 µM
Nc1ccccc1SC1CC(=O)N(c2ccc(Cl)c(Cl)c2)C1=O (configuration not stated),26.9 µM,22.4 µM,> 100 µM,31 µM,16.2 µM,27.1 µM,> 100 µM,15.6 µM,> 100 µM,10.1 µM,> 100 µM,> 100 µM,21.9 µM,> 100 µM,> 100 µM,8.78 µM,> 100 µM,14.6 µM,64.4 µM,> 100 µM
O=C1CSC(c2ccc(-c3nc4ccccc4s3)cc2)=N1,40.9 µM,13.1 µM,59.8 µM,50.5 µM,3.11 µM,,,,,20.9 µM,> 100 µM,> 100 µM,19.2 µM,41.2 µM,13.8 µM,> 100 µM,> 100 µM,,,> 100 µM
Cc1ccc(S(=O)(=O)NC(=O)NC2=NC(C)(C)N(c3ccc(Cl)c(Cl)c3)C(N)=N2)cc1,,,> 100 µM,,,,> 100 µM,,> 100 µM,,> 100 µM,> 100 µM,,> 100 µM,> 100 µM,,> 100 µM,,> 100 µM,> 100 µM
Cn1c(=O)c2c(ncn2CC(=O)Nc2ccc(-c3ccccc3)nn2)n(C)c1=O,> 100 µM,42.9 µM,> 100 µM,> 100 µM,> 100 µM,> 100 µM,> 100 µM,> 100 µM,> 100 µM,> 100 µM,> 100 µM,> 100 µM,62.6 µM,> 100 µM,> 100 µM,> 100 µM,> 100 µM,> 100 µM,> 100 µM,> 100 µM
CCN(CC)c1cc2oc3cc(N)cc(=N)c-3nc2cc1C,2.01 µM,,,3.03 µM,3.93 µM,1.86 µM,4.49 µM,2.16 µM,6.08 µM,1.85 µM,4.69 µM,14.3 µM,1.42 µM,2.79 µM,29.8 µM,1.73 µM,> 100 µM,3.39 µM,42.8 µM,5.19 µM
CC/C=C/C/C=C/C/C=C/C/C=C/C/C=C/C/C=C/CCC(=O)Nc1ccn([C@@H]2O[C@H](CO)[C@@H](O)C2(F)F)c(=O)n1,35.9 µM,0.0387 µM,8.3 µM,4.07 µM,1.42 µM,,17.2 µM,9.33 µM,24.2 µM,0.11 µM,> 66.8 µM,30.7 µM,0.348 µM,17.8 µM,39.8 µM,6.65 µM,52.3 µM,0.228 µM,12.1 µM,19.8 µM
O=C(NCc1ccc(S(=O)(=O)c2cc(F)cc(F)c2)cc1)c1ccc2nccn2c1,20.1 µM,,> 100 µM,12.1 µM,0.328 µM,8.69 µM,> 100 µM,> 41.6 µM,> 65 µM,15.8 µM,> 74.9 µM,> 80.4 µM,2.22 µM,> 100 µM,> 100 µM,,> 100 µM,> 46 µM,> 73.9 µM,> 95.3 µM
O=C(O)C12CC3(C(=O)O)CC(C(=O)O)(CC(C(=O)O)(C1)C3=O)C2=O,,,> 100 µM,,,,> 100 µM,,> 100 µM,,> 100 µM,> 100 µM,,> 100 µM,> 100 µM,,> 100 µM,,> 100 µM,> 100 µM
CCN(CC)CCNc1ccc2ncn3c4cc(OC)c(OC)c(=O)c4c(O)c1c23,,,16.2 µM,,,,15.2 µM,,36.8 µM,,42.7 µM,35.6 µM,,29.8 µM,23.2 µM,,21 µM,,45.6 µM,23.6 µM
O/C(=C\c1nc2ccccc2nc1NC12CC3CC(CC(C3)C1)C2)c1ccc(Br)cc1,,,,,,,> 10 µM,,> 10 µM,,> 10 µM,> 10 µM,,> 10 µM,> 10 µM,,> 10 µM,,> 10 µM,> 10 µM
COC1=C(Br)C(=O)c2nc(C)ccc2C1=O,,,6.79 µM,,,,,,30.5 µM,,30.1 µM,33.9 µM,,32 µM,31.7 µM,,,,38.2 µM,34.7 µM
CCC(=O)Nc1ccc(N=NN(C)C)cc1,,,,,,,> 100 µM,,> 100 µM,,> 100 µM,,,> 100 µM,,,> 100 µM,,> 100 µM,

SMILES,GI50 (SK-MEL-2 melanoma),GI50 (SR leukemia),TGI (SR leukemia),GI50 (IGROV1 ovarian),GI50 (KM12 colon),GI50 (MCF7 breast),TGI (MCF7 breast),GI50 (MALME-3M melanoma),TGI (MALME-3M melanoma),GI50 (SF-295 CNS),TGI (SK-MEL-2 melanoma),TGI (IGROV1 ovarian),GI50 (SK-MEL-5 melanoma),TGI (SK-MEL-5 melanoma),TGI (KM12 colon),GI50 (PC-3 prostate),TGI (PC-3 prostate),GI50 (NCI-H226 lung),TGI (NCI-H226 lung),TGI (SF-295 CNS)
O=S1(=O)OCCOS(=O)(=O)C1Cl,,,> 100 µM,,,,,,> 100 µM,,> 100 µM,> 100 µM,,> 100 µM,> 100 µM,,,,> 100 µM,> 100 µM
CC(=O)OCCOCNC(=S)N/N=C/c1ccc(Br)s1,,,> 100 µM,,,,,,> 100 µM,,> 100 µM,> 100 µM,,> 100 µM,> 100 µM,,,,> 100 µM,> 100 µM
C/C(CCn1[nH]c(=O)ccc1=O)=N\OCCCc1ccccc1,,,> 100 µM,,,,,,> 100 µM,,> 100 µM,> 100 µM,,> 100 µM,> 100 µM,,,,> 100 µM,> 100 µM
COC(=O)CCC1=C(CC(=O)OC)C(C)=N/C1=C\c1[nH]c(-c2ccc[nH]2)cc1OC,,1.71 µM,7.7 µM,4.21 µM,2.67 µM,2.38 µM,13.5 µM,6.8 µM,23.3 µM,3.25 µM,,28.6 µM,1.44 µM,3.23 µM,15 µM,5.32 µM,22.6 µM,3.29 µM,19.6 µM,15.1 µM
CCOc1ccccc1NC(=O)C(=O)Cc1nc2ccccc2s1,,,> 100 µM,,,,,,> 100 µM,,> 100 µM,> 100 µM,,> 100 µM,> 100 µM,,,,> 100 µM,> 100 µM
[F][Sn]([F])([c]1ccccc1)[c]1ccccc1,1.91 µM,1.18 µM,3.81 µM,1.84 µM,1.7 µM,,,1.8 µM,3.33 µM,1.99 µM,3.43 µM,4 µM,1.78 µM,3.31 µM,3.43 µM,,,2.11 µM,4.26 µM,3.85 µM
O=C(CSC(c1ccccc1)c1ccccc1)N/N=C/c1ccco1,1.4 µM,,,,2.03 µM,1.74 µM,> 5.22 µM,1.53 µM,2.94 µM,2.4 µM,3.76 µM,1.41 µM,1.5 µM,6.41 µM,15.5 µM,2.03 µM,9 µM,3 µM,17.1 µM,12.5 µM
C=C1CC[C@@H](C(C)C)C[C@@H]2[C@H]([C@H](O)C[C@]2(C)O)[C@@]2(C)CC[C@@H]1O2,23.2 µM,14.2 µM,30.9 µM,17.2 µM,16.2 µM,16.2 µM,29.7 µM,14.1 µM,28.6 µM,14.7 µM,50.6 µM,33.4 µM,14.8 µM,28.3 µM,32 µM,,,16.8 µM,31.5 µM,32.3 µM
O=C(O)CSc1n[nH]c(Cc2ccccc2)n1,,,> 100 µM,,,,,,> 100 µM,,> 100 µM,> 100 µM,,> 100 µM,> 100 µM,,,,> 100 µM,> 100 µM
COc1ccc2c(c1)C(C)Cc1c(ncnc1-n1cnc3cc(C)ccc31)N2C (configuration not stated),0.187 µM,0.0443 µM,11.1 µM,0.254 µM,0.132 µM,0.0379 µM,12.7 µM,,,0.0317 µM,13.4 µM,14.5 µM,0.0753 µM,0.589 µM,11.7 µM,0.0407 µM,21 µM,0.157 µM,16.3 µM,11 µM
CN(C)CCSc1nccc(-c2cc3ccccc3s2)n1,,,63.4 µM,,,,,,36 µM,,33.5 µM,> 100 µM,,27.9 µM,48.2 µM,,,,38 µM,31 µM
Clc1ccc(N=CNc2ccc(-c3nc4ccccc4o3)cc2)cc1,30 µM,40.6 µM,> 100 µM,84.2 µM,15.4 µM,,,,,19.4 µM,> 100 µM,> 100 µM,15.4 µM,30.1 µM,38.7 µM,41.7 µM,> 100 µM,27.2 µM,> 100 µM,45.9 µM
CO/N=C(/C)c1cccc(Nc2cc(-c3ccccc3)nc3ccc(OC)cc23)c1,50.3 µM,,,26.2 µM,,5.71 µM,56.5 µM,2.45 µM,7.78 µM,3.82 µM,> 100 µM,> 100 µM,2.63 µM,8.13 µM,,4.68 µM,21.6 µM,15.7 µM,41 µM,21.1 µM
Nc1ccc2[nH]cc(CCC(=O)O)c2c1,,,,,,,> 100 µM,,> 100 µM,,> 100 µM,> 100 µM,,> 100 µM,> 100 µM,,> 100 µM,,> 100 µM,> 100 µM
O=c1c2ccccc2nc(-c2ccccc2)n1NC(=S)Nc1ccccc1,,,> 100 µM,,,,,,> 100 µM,,> 100 µM,> 100 µM,,> 100 µM,> 100 µM,,,,> 100 µM,> 100 µM
COC(=O)c1cc(/C=C/c2ccc(S(N)(=O)=O)cc2)ccc1O,66.8 µM,,,25.7 µM,24 µM,30.7 µM,> 100 µM,34.5 µM,> 100 µM,26.5 µM,> 100 µM,> 100 µM,14.5 µM,35.5 µM,> 100 µM,30.7 µM,> 100 µM,21.4 µM,52.9 µM,> 100 µM
S=C1SC2=Nc3ccccc3CN2C2=NCCN12,,18.7 µM,55.7 µM,7.88 µM,> 100 µM,51.5 µM,> 100 µM,49.6 µM,> 100 µM,83.5 µM,,> 100 µM,14.8 µM,55.5 µM,> 100 µM,> 100 µM,> 100 µM,> 100 µM,> 100 µM,> 100 µM
